Source: ChEMBL document CHEMBL1201862, “PubChem BioAssay data set” (2004)
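Briefly, cells in 96-well plates were exposed to five compound concentrations for 48 h, and endpoints were estimated by linear interpolation. GI50: concentration for 50% inhibition of growth.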 Active and inactive are the calls of the source. Cut-off read from the data, not from the text of the source: active = GI50 up to about 1.1 µM and inactive = higher.

Key:
Test in all cases: growth of human tumour cells (NCI), 48 h
RXF 393 = tested on: RXF 393
SW-620 = tested on: SW-620
UACC-257 = tested on: UACC-257
MDA-MB-231 = tested on: MDA-MB-231
OVCAR-4 = tested on: OVCAR-4
OVCAR-8 = tested on: OVCAR-8
MCF7 = tested on: MCF7
MOLT-4 = tested on: MOLT-4
HOP-92 = tested on: HOP-92
HCT-116 = tested on: HCT-116
PC-3 = tested on: PC-3
SF-539 = tested on: SF-539
M14 = tested on: M14
786-0 = tested on: 786-0
SF-268 = tested on: SF-268
Malme-3M = tested on: Malme-3M
UO-31 = tested on: UO-31
HCT-15 = tested on: HCT-15
CCRF-CEM = tested on: CCRF-CEM
HOP-62 = tested on: HOP-62

CC(=O)OC(=C(C#N)C#N)c1nccnc1C(=O)O
GI50 (RXF 393): > 100 µM (inactive)
GI50 (SW-620): > 100 µM (inactive)
GI50 (UACC-257): > 100 µM (inactive)
GI50 (MDA-MB-231): > 100 µM (inactive)
GI50 (OVCAR-4): > 100 µM (inactive)
GI50 (OVCAR-8): > 100 µM (inactive)
GI50 (MCF7): > 100 µM (inactive)
GI50 (MOLT-4): > 100 µM (inactive)
GI50 (HOP-92): > 100 µM (inactive)
GI50 (HCT-116): > 100 µM (inactive)
GI50 (PC-3): > 100 µM (inactive)
GI50 (SF-539): > 100 µM (inactive)
GI50 (M14): > 100 µM (inactive)
GI50 (786-0): > 100 µM (inactive)
GI50 (SF-268): > 100 µM (inactive)
GI50 (Malme-3M): > 100 µM (inactive)
GI50 (UO-31): > 100 µM (inactive)
GI50 (HCT-15): > 100 µM

c1ccc(COc2nc3cc(C45CC6CC(CC(C6)C4)C5)ccc3[nH]2)cc1
GI50 (RXF 393): 11.3 µM (inactive)
GI50 (SW-620): 21.4 µM (inactive)
GI50 (UACC-257): 2.92 µM (inactive)
GI50 (MDA-MB-231): 21.8 µM (inactive)
GI50 (OVCAR-4): > 31.3 µM (inactive)
GI50 (OVCAR-8): 18 µM (inactive)
GI50 (MCF7): 4.7 µM (inactive)
GI50 (MOLT-4): 3.35 µM (inactive)
GI50 (HOP-92): 7.29 µM (inactive)
GI50 (HCT-116): 9.08 µM (inactive)
GI50 (CCRF-CEM): 10.2 µM (inactive)
GI50 (PC-3): 9.06 µM (inactive)
GI50 (M14): 17.2 µM (inactive)
GI50 (786-0): 14.9 µM (inactive)
GI50 (SF-268): 31.3 µM (inactive)
GI50 (Malme-3M): 9.16 µM (inactive)
GI50 (UO-31): 6.22 µM (inactive)
GI50 (HCT-15): 3.72 µM
GI50 (HOP-62): 24.4 µM (inactive)

COC(=O)C1=C(C(=O)OC)C2(C)C=CC1O2 (configuration not stated)
GI50 (RXF 393): 20.9 µM (inactive)
GI50 (SW-620): 4.68 µM (inactive)
GI50 (UACC-257): 15.9 µM (inactive)
GI50 (MDA-MB-231): 16.6 µM (inactive)
GI50 (OVCAR-4): 13.1 µM (inactive)
GI50 (OVCAR-8): 17.4 µM (inactive)
GI50 (MCF7): 31.5 µM (inactive)
GI50 (HOP-92): 5.01 µM (inactive)
GI50 (HCT-116): 10.5 µM (inactive)
GI50 (PC-3): 21.4 µM (inactive)
GI50 (SF-539): 18.9 µM (inactive)
GI50 (M14): 17.3 µM (inactive)
GI50 (786-0): 3.78 µM (inactive)
GI50 (SF-268): 31 µM (inactive)
GI50 (Malme-3M): 2.92 µM (inactive)
GI50 (UO-31): 4.51 µM (inactive)
GI50 (HCT-15): 16 µM
GI50 (HOP-62): 34.9 µM (inactive)

CCc1n[nH]c(=O)n1N1C(=O)C2CCCCC2C1=O (configuration not stated)
GI50 (RXF 393): > 100 µM (inactive)
GI50 (SW-620): > 100 µM (inactive)
GI50 (UACC-257): > 100 µM (inactive)
GI50 (MDA-MB-231): > 100 µM (inactive)
GI50 (OVCAR-4): > 100 µM (inactive)
GI50 (OVCAR-8): > 100 µM (inactive)
GI50 (MCF7): > 100 µM (inactive)
GI50 (MOLT-4): > 100 µM (inactive)
GI50 (HOP-92): > 100 µM (inactive)
GI50 (HCT-116): > 100 µM (inactive)
GI50 (CCRF-CEM): > 100 µM (inactive)
GI50 (PC-3): > 100 µM (inactive)
GI50 (M14): > 100 µM (inactive)
GI50 (786-0): > 100 µM (inactive)
GI50 (SF-268): > 100 µM (inactive)
GI50 (Malme-3M): > 100 µM (inactive)
GI50 (UO-31): > 100 µM (inactive)
GI50 (HCT-15): > 100 µM
GI50 (HOP-62): > 100 µM (inactive)

CC(C)(OCc1ccccc1)c1ccccc1P(c1ccccc1)c1ccccc1
GI50 (RXF 393): > 100 µM (inactive)
GI50 (SW-620): 82.2 µM (inactive)
GI50 (UACC-257): 22.3 µM (inactive)
GI50 (MDA-MB-231): 65 µM (inactive)
GI50 (OVCAR-4): 31.3 µM (inactive)
GI50 (OVCAR-8): 39.9 µM (inactive)
GI50 (MCF7): 40.4 µM (inactive)
GI50 (MOLT-4): 17.2 µM (inactive)
GI50 (HOP-92): 35.2 µM (inactive)
GI50 (HCT-116): 40 µM (inactive)
GI50 (PC-3): 33.3 µM (inactive)
GI50 (SF-539): > 100 µM (inactive)
GI50 (M14): 43.6 µM (inactive)
GI50 (786-0): 66.4 µM (inactive)
GI50 (SF-268): 83.8 µM (inactive)
GI50 (Malme-3M): 26.2 µM (inactive)
GI50 (UO-31): 87.7 µM (inactive)
GI50 (HCT-15): 36.4 µM
GI50 (HOP-62): 60 µM (inactive)

COc1cc(O)cc(/C=C/c2ccc(O)cc2)c1
GI50 (RXF 393): 72.8 µM (inactive)
GI50 (SW-620): 48.8 µM (inactive)
GI50 (UACC-257): 40.8 µM (inactive)
GI50 (MDA-MB-231): 16 µM (inactive)
GI50 (OVCAR-4): 44.6 µM (inactive)
GI50 (OVCAR-8): 23.8 µM (inactive)
GI50 (MCF7): 49.2 µM (inactive)
GI50 (MOLT-4): 36 µM (inactive)
GI50 (HOP-92): 21.6 µM (inactive)
GI50 (HCT-116): 32 µM (inactive)
GI50 (PC-3): 18 µM (inactive)
GI50 (SF-539): 35.6 µM (inactive)
GI50 (M14): 24.3 µM (inactive)
GI50 (786-0): 29.6 µM (inactive)
GI50 (SF-268): 49.1 µM (inactive)
GI50 (Malme-3M): 32.6 µM (inactive)
GI50 (UO-31): 39.1 µM (inactive)
GI50 (HCT-15): 10.1 µM
GI50 (HOP-62): 28.8 µM (inactive)
